Results on nine molecules are retold here after ChEMBL document CHEMBL1201862, “PubChem BioAssay data set” (2004).

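Following 48 hours of exposure in 96-well plates, responses at five concentrations were used to interpolate endpoints linearly. At the GI50, growth is halved.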 Calls of active or inactive are those of the source. Rule as the data show it: active = GI50 up to about 1.1 µM and inactive = higher.

Some test systems named below: 786-0; CCRF-CEM; EKVX; HCC 2998; HOP-62; MOLT-4; Malme-3M; NCI-H23; OVCAR-4; RPMI-8226; SF-268; SK-MEL-28; SK-OV-3; SR; UACC-257; UO-31; DU-145; MDA-MB-231; MDA-MB-435.
Common to all, as to assay: NCI anticancer screen, dose series, 48 h

For the molecule `O=[N+]([O-])c1ccc(COc2cccc3cccnc23)cc1`, the GI50 with 786-0 is 17.2 µM (inactive); with CCRF-CEM, 3.94 µM (inactive); in the experiment with EKVX, 18.9 µM (inactive); in the experiment with HCC 2998, 22.3 µM (inactive); with HOP-62 it was 30 µM (inactive); with MOLT-4, 4.98 µM (inactive). Moreover, the GI50 in the experiment with Malme-3M is 33 µM (inactive); in the experiment with NCI-H23, 20 µM (inactive); with OVCAR-4 it was 12.4 µM (inactive); with RPMI-8226, 13 µM (inactive); with SF-268 it was 19.9 µM (inactive); in the experiment with SK-MEL-28 it was 14.8 µM (inactive). Also, the GI50 in the experiment on SK-OV-3 was 32.3 µM (inactive); in the experiment with SR, 3.47 µM (inactive); with UACC-257, 20.2 µM (inactive); in the experiment on UO-31, 10.1 µM (inactive).
On to `N=C(Nc1nc(-c2ccccn2)cc2ccccc12)c1ccccn1`, for which the GI50 in the experiment on 786-0 was 0.0317 µM (active); in the experiment with CCRF-CEM it was 0.01 µM (active); with DU-145 it was 0.0673 µM (active); in the experiment on EKVX, 0.0221 µM (active); in the experiment on HCC 2998 it was 0.117 µM (active); with HOP-62, 0.0789 µM (active). The GI50 in the experiment with MDA-MB-231 was < 0.0179 µM (active); in the experiment on MDA-MB-435, 0.12 µM (active); in the experiment on MOLT-4 it was 0.01 µM (active); in the experiment on Malme-3M, 0.157 µM (active); in the experiment on NCI-H23, 0.0156 µM (active); with OVCAR-4, < 0.0561 µM (active). Further, the GI50 is 0.00201 µM (active) in the experiment with RPMI-8226; 0.065 µM (active) in the experiment on SF-268; 0.252 µM (active) in the experiment with SK-MEL-28; 0.0308 µM (active) in the experiment with SK-OV-3; < 0.0172 µM (active) with UACC-257; 0.0918 µM (active) with UO-31.
Regarding `CCOC(=O)C(COS(C)(=O)=O)(COS(C)(=O)=O)C(=O)OCC`, the GI50 in the experiment on CCRF-CEM, in the experiment with DU-145, in the experiment with HCC 2998, in the experiment with MDA-MB-231, in the experiment on MDA-MB-435 and in the experiment with MOLT-4 was > 100 µM (inactive) in each case. Moreover, the GI50 in the experiment on NCI-H23, with OVCAR-4, in the experiment with SF-268, in the experiment with SK-MEL-28, in the experiment on SK-OV-3 and in the experiment with SR was > 100 µM (inactive) each time. For the same molecule, the GI50 with UACC-257 and with UO-31 was > 100 µM (inactive) in each case.
`Nc1nc(=O)[nH]c2c1cnn2C1CCCCO1` (stereo not given): the GI50 in the experiment on CCRF-CEM, in the experiment on EKVX, in the experiment on HCC 2998, in the experiment with MOLT-4, in the experiment with Malme-3M and in the experiment with NCI-H23 was > 100 µM (inactive) each time. Further, the GI50 was > 100 µM (inactive) with OVCAR-4; > 100 µM (inactive) in the experiment with RPMI-8226; > 100 µM (inactive) in the experiment with SF-268; > 100 µM (inactive) in the experiment on SK-MEL-28; 56 µM (inactive) in the experiment with SR; > 100 µM (inactive) with UACC-257. For the same molecule, the GI50 in the experiment on UO-31 was > 100 µM (inactive).
Consider `O=[N+]([O-])c1cc(Cl)c(Cl)cc1[N+](=O)[O-]`, for which the GI50 in the experiment with 786-0 was 2.8 µM (inactive); in the experiment with CCRF-CEM, 5.94 µM (inactive); in the experiment with DU-145 it was 2.07 µM (inactive); in the experiment on EKVX it was 2.83 µM (inactive); in the experiment on HOP-62, 2.74 µM (inactive); with MDA-MB-231, 2.25 µM (inactive). The GI50 with MDA-MB-435 is 4.07 µM (inactive); in the experiment with MOLT-4, 0.212 µM (active); in the experiment with Malme-3M, 2.74 µM (inactive); in the experiment with NCI-H23, 2.14 µM (inactive); in the experiment on OVCAR-4, 2.48 µM (inactive); with RPMI-8226 it was 4.17 µM (inactive). The GI50 was 1.81 µM (inactive) in the experiment on SF-268; 2.64 µM (inactive) with SK-MEL-28; 1.89 µM (inactive) in the experiment with SR; 2.15 µM (inactive) in the experiment on UACC-257; 1.93 µM (inactive) in the experiment on UO-31.
As for `CNC(=O)CCNC(=O)CCC(=O)N(C)C`, the GI50 in the experiment with 786-0, with DU-145, in the experiment on HCC 2998, with HOP-62, in the experiment with MDA-MB-231 and in the experiment on MDA-MB-435 was > 100 µM (inactive) in each case. Moreover, the GI50 in the experiment on MOLT-4 was > 100 µM (inactive); in the experiment on Malme-3M, 15.7 µM (inactive); in the experiment with NCI-H23 it was > 100 µM (inactive); in the experiment on OVCAR-4 it was > 100 µM (inactive); with RPMI-8226, > 100 µM (inactive); with SF-268 it was > 100 µM (inactive). For the same molecule, the GI50 with SK-MEL-28 is > 100 µM (inactive); with SK-OV-3 it was > 100 µM (inactive); with SR, 0.951 µM (active); with UO-31, > 100 µM (inactive).
With `COc1ccc(Cc2c3cc(OC)c(OC)cc3cc[n+]2C)cc1`, the GI50 is > 23.8 µM (inactive) with 786-0; > 39 µM (inactive) with EKVX; > 25.2 µM (inactive) with HCC 2998; > 20.8 µM (inactive) in the experiment with HOP-62; > 100 µM (inactive) in the experiment on MOLT-4; 27.2 µM (inactive) with Malme-3M. Further, the GI50 in the experiment on NCI-H23 was 8.3 µM (inactive); with OVCAR-4 it was 19.8 µM (inactive); with RPMI-8226, 24.5 µM (inactive); with SF-268, 4.7 µM (inactive); in the experiment on SK-MEL-28, 32.6 µM (inactive); with SR it was 2.2 µM (inactive). For the same molecule, the GI50 was 20.4 µM (inactive) in the experiment with UACC-257 and > 34 µM (inactive) with UO-31.
Turning to `COC(=O)c1ccccc1NC(=O)C(=O)CC(=O)CC(c1ccccc1)c1c(O)c2ccccc2oc1=O` (stereo not given), the GI50 with 786-0, with CCRF-CEM, with EKVX, in the experiment with HCC 2998, with HOP-62 and with MOLT-4 was > 100 µM (inactive) throughout. Besides, the GI50 with Malme-3M, with NCI-H23, in the experiment with OVCAR-4, with RPMI-8226, in the experiment with SF-268 and in the experiment with SK-MEL-28 was > 100 µM (inactive) each time. Moreover, the GI50 in the experiment on SK-OV-3, in the experiment on SR, in the experiment on UACC-257 and in the experiment with UO-31 was > 100 µM (inactive) in each case.
For `COc1ccc(/C=C/c2cc(OC)c(OCc3ccccc3)c(OC)c2)cc1`, the GI50 in the experiment with 786-0 was > 100 µM (inactive); in the experiment with CCRF-CEM it was > 100 µM (inactive); in the experiment on EKVX, > 100 µM (inactive); with HCC 2998, > 100 µM (inactive); in the experiment on HOP-62, > 100 µM (inactive); with MOLT-4 it was 29 µM (inactive). Moreover, the GI50 in the experiment on Malme-3M is > 100 µM (inactive); with NCI-H23, 64 µM (inactive); in the experiment with OVCAR-4, 23.6 µM (inactive); in the experiment with RPMI-8226, 57.9 µM (inactive); with SF-268, > 100 µM (inactive); in the experiment on SK-MEL-28, 56.6 µM (inactive). In addition, the GI50 in the experiment with SK-OV-3 was > 100 µM (inactive); with SR it was 26.4 µM (inactive); with UACC-257 it was 99.1 µM (inactive); with UO-31, 52.1 µM (inactive).
